# Where two headings read alike, the source gives them in different places. Marks after values point to notes of the source that are not given here.
# Legend:
# hERG potassium channels = hERG potassium channels (Homo sapiens, UniProt Q12809); test: hERG potassium channel block, electrophysiology (IonWorks Quattro), CHO cells
# Method: Ability to block hERG potassium channels was determined using the electrophysiological method and cloned hERG potassium channels (KCNH2 gene, expressed in CHO cells) as biological material. The effects were evaluated using IonWorks™ Quattro system (MDS-AT).
# hERG current was elicited using a pulse pattern with fixed amplitudes (conditioning prepulse: −80 mV for 25 ms; test pulse: +40 mV for 80 ms) from a holding potential of 0 mV. hERG current was measured as a difference between the peak current at 1 ms after the test step to +40 mV and the steady-state current at the end of the step to +40 mV.
# Data acquisition and analyses was performed using the IonWorks Quattro™ system operation software (version 2.0.2; Molecular Devices Corporation, Union City, Calif.). Data were corrected for leak current.
# mice [1] = test: d-Amphetamine-induced locomotor hyperactivity in mice; settings: for MED*: minimum effective dose, d-amphetamine-induced locomotor hyperactivity, i.p.
# Method: (§1) All the experiments were performed by two observers unaware of the treatment applied between 9:00 and 14:00 on separate groups of animals. All animals were used only once and were killed immediately after the experiment.
# The locomotor activity was recorded with an Opto M3 multi-channel activity monitor (MultiDevice Software v. 1.3, Columbus Instruments). The mice were individually placed in plastic cages (22×12×13 cm) for 30 minutes habituation period, and then the crossings of each channel (ambulation) were counted during 1 h with data recording every 5 minutes. The cages were cleaned up with 70% ethanol after each mouse. Drugs were administered to 10 mice per treatment group. d-Amphetamine was administered 30 minutes before the test.
# (§2) An injection volume of 10 ml/kg (mice) or 2 ml/kg (rats) was used throughout and all compounds were administered intraperitoneally (i.p.), except d-amphetamine that was given subcutaneously (s.c.).
# All the data are expressed as the mean±SEM. The statistical significance of effects was evaluated using separate one-way analysis of variance (ANOVA) with comparison between individual groups by Dunnett's test (when only one drug was given) or by the Tukey's test when two drugs were used; p<0.05, p<0.01 and p<0.001 were considered statistically significant. ED50 values were calculated using Graph Pad Prism 5 Software.
# histaminergic receptor = target: T1, histaminergic receptor (Cavia porcellus, UniProt P31389); test: Guinea-pig ileum test, antagonism of histamine contraction; settings: antagonistic activity towards histaminergic receptor, agonist histamine, read-out: H ant** (pKb) (converted)
# T1 construct: Terminal ileum was dissected and placed into a Krebs solution; from tissue; host or cells: guinea-pig terminal ileum segments (organ bath)
# T1 sequence (P31389 whole entry): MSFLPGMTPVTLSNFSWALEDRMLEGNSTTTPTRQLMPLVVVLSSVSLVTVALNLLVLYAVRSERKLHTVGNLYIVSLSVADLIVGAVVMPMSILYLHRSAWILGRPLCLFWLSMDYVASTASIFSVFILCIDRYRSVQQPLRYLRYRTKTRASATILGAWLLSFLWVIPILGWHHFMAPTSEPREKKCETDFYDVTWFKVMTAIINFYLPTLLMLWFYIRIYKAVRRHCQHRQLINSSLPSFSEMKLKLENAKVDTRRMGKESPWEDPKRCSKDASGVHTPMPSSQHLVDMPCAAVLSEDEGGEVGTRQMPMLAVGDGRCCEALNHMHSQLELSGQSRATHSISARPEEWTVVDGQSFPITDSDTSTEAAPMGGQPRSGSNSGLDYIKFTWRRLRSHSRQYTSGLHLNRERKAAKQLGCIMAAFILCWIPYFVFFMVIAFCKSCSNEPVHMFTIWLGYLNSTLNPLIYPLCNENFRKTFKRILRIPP
# Method: Ileum was prepared from male guinea-pigs with 300-350 g of body weight, fasted for 24 h before experiment with free access to drinking water. Terminal ileum was dissected and placed into a Krebs solution (NaCl 120 mM, KCl 5.6 mM, MgCl2 2.2 mM, CaCl2 2.4 mM, NaHCO3 19 mM, glucose 10 mM) and 2 cm-long fragments were cut. Each segment of the gut was placed in 30 ml chamber filled with the Krebs solution at 37 C, pH 7.4, with constant oxygenation (O2/CO2, 19:1), fixed by the lower end to a glass rod and by the upper end to the force-displacement transducer FDT 10-A (Biopac Systems, COMMAT, Ltd., Turkey). The preparation was allowed to stabilize in organ baths for 60 min under a resting tension of 0.5 g, washing every 15 min with fresh Krebs solution. All responses were recorded using software Biopac Systems Inc MP-35 Data Acquisition, Turkey.
# In next step, stock solutions were diluted 10× in water.
# The equilibration period a cumulative concentration-response curve was constructed in so each tissue for respective agonist—carbachol (3×10^−9−3×10^−6 M) or histamine (10^−8-10^−5 M) by the method of van Rossum (Ref. 24). Following the first agonist curve, tissues were incubated with one of the concentrations of tested compounds for 15 min and the next cumulative concentration curve to agonist was obtained. Only one concentration of the antagonist was tested in each piece of tissue. Experiments were repeated three to eight times.
# After the equilibration period a cumulative concentration-response curve was constructed in each tissue for histamine (10^−8-10^−5 M) by the method of van Rossum. Following the first histamine curve, tissues were incubated with one of the concentrations of tested compounds for 15 min and the next cumulative concentration curve to histamine was obtained. Only one concentration of the antagonist was tested in each piece of tissue. Experiments were repeated three to seven times.
# Concentration-response curves were analysed using GraphPad Prism 4.0 (GraphPad Software Inc., San Diego, Calif., USA). […]
# [2] = target: serotoninergic 5-HT2C receptor (Homo sapiens, UniProt P28335); test: Cellular functional assay, serotoninergic 5-HT2C receptor (agonism/antagonism); assay type: cell-based; settings: agonist effect, percent of control specific agonist response; 1×10^−6M
# Sequence of serotoninergic 5-HT2C receptor (P28335 33-458): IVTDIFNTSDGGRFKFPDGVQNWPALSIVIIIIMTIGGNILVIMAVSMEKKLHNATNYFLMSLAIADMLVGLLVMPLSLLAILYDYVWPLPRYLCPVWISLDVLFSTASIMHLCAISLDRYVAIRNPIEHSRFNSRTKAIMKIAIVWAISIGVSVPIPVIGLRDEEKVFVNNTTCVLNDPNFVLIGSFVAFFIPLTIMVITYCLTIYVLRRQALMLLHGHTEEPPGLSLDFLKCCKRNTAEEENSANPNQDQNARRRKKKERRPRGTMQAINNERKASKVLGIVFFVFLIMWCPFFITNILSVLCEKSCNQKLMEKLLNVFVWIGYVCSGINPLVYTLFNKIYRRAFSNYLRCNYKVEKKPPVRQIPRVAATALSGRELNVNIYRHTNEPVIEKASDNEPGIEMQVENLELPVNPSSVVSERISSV
# Method: The compounds were tested at the concentration of 1×10^−6M.
# In the Tables ag refers to agonism, and antag to antagonism).
# C57BL/6J mice = test: Tail suspension test in C57BL/6J mice; assay type: in vivo
# Swiss mice = test: Four-plate test in Swiss mice; assay type: in vivo
# Wistar rats [3] = test: Forced swimming test (Porsolt's test) in rats; assay type: in vivo
# Description: (§3) Drug-naive male Wistar rats (Charles River, Sulzfeld, Germany) weighing 250-400 g were used in all experiments. Rats were housed two per standard plastic cage and kept in a room with constant environmental conditions (21-22′C, relative humidity 60%, a 12:12 light-dark cycle with lights on at 7:00 a.m.). Animals were supplied by the breeder two weeks before the onset of behavioral procedures. During this time, the subjects were weighed and handled several times. Tap water and standard lab chow (Labofeed H, WPIK, Kcynia, Poland) was available ad libitum.
# as §2
# The animals were individually subjected to two experimental trials during which they were forced to swim in a cylinder (40 cm high, 18 cm in diameter) filled with warm water (25° C.) to a height of 15 cm. A video camera was mounted 50 cm above the cylinder. The first (habituation) and second (test) trial lasted 15 and 5 minutes, respectively. There was a 24-h interval between the trials. The total duration of immobility was measured during the second trial by a trained observer located in a separate room.
# Weights and time of immobility were analyzed with the aid of a one-way analysis of variance (ANOVA). […]
# Wistar rats [4] = test: Conflict drinking test (Vogel test) in rats; assay type: in vivo
# Description: Recording data started immediately after the first lick and every 20 licks rats were punished with an electric shock (0.5 mA, lasting 1 s). […] If a rat was drinking when an impulse was released, it received a shock.
# Wistar rats [5] = test: Elevated plus maze test in rats
# Method: as §1
# Floor of the plus-maze was made of infrared transparent material what means that there are no visible sensors. The plus-maze was placed in a darkened room, and the center of the apparatus was illuminated with a 25 W electric bulb hanging 100 cm above. Plus-maze apparatus was connected to PC software by control chassis. Each rat was gently placed in the center of the plus-maze, facing one of the closed arms, immediately after a 5-min adaptation period in a plastic black box (60×60×35 cm). During a 5-minutes test period, automated Motor Monitor System recorded the number of entries into the closed and open arms, the time spent in and the distance (cm) covered by a rat in either type of the arms. After each trial the maze was wiped clean. All compounds were administered to 5-8 rats per treatment group.
# Wistar rats [6] = test: Passive avoidance procedure in rats; settings: passive-avoidance (model of memory disturbance)
# Description: as §3
# Potentially impairing effects of test substance on learning and memory function in rats were evaluated using a step-through passive avoidance (PA) test. […]
# In the training session (acquisition), animals were placed in the lighted compartment and allowed to explore it freely for 10 s. The sliding door was then opened, and the step-through latency for a rat to enter the dark compartment was measured. […]
# The test (expression) session was performed 24 h after the training session. […] A step-through latency for animals to enter the dark compartment was measured with a cut-off of 300 s.
# Weights and step-trough latencies were analyzed with the aid of a one-way analysis of variance (ANOVA). […]
# Wistar rats [7] = test: Amphetamine-induced PPI deficits in rats
# Description: as §3, §2
# The PPI apparatus consisted of eight startle chambers (SR-LAB, San Diego Instruments, San Diego, Calif., USA). […] Startle responses, reflecting the motion of animals in the cylinder so following the acoustic stimulus, were detected by a piezoelectric transducer mounted below the frame. […]
# This interval was randomized by the SR-LAB software. Startle responses were measured for 100 ms after the onset of the last trial stimulus. […]
# Startle responses (in manufacturer's arbitrary units), and magnitudes of PPI (%) were analyzed with the aid of a one-way analysis of variance (ANOVA). […]
# Wistar rats [8] = test: MK-801-induced stereotyped behaviour in rats; settings: MK-801-induced stereotyped behaviour (glutamate-related psychosis model)
# Description: as §3, §2
# All tests were carried out in a sound-attenuated experimental room between 9:00 a.m. and 3:00 p.m. Within 24 h prior to testing, rats were habituated to glass observation cages (25×25×40 cm, W×H×L) with wood chip bedding on the floor for 20 min. […] Views of other rats in the experiment were prohibited. Fifteen minutes later, the time spent circling/head waving was recorded by a trained observer for 5 min. […] Rats were pre-injected with a test drug 60 min. before the start of the observation period.
# The duration of stereotyped circling was analyzed with the aid of the Kruskal-Wallis analysis of variance (ANOVA). […]
# Wistar rats [9] = test: Conditioned avoidance response (CAR) in rats
# Method: as §2
# Rats trained to avoid the foot shock were placed in the experimental chambers for a 3 min. habituation period followed by 50 CAR trials presented on a 15-s variable interval (VI) schedule. Each trial consisted of a 10 s warning tone and stimulus light (conditioned stimulus) followed by 10 s electric shock (0.5 mA). If during the initial 10 s of the trial an animal crossed through the sliding door, the tone and light were terminated, no shock was applied, and the response was considered as “an avoidance response”. If the animal crossed through the sliding door after a foot shock was initiated, the response was considered as an escape response. […] If a response was made during an intertrial interval, it was punished with 0.5 s shock (0.5 mA). […] On test days, a tested drug was administered i.p. 60 minutes before the start of the test session. Each drug was tested at 3-4 different doses in the same group of eight animals. A 7-day wash-out period was introduced between the subsequent tests. […]
# Avoidances, escapes, and “none” responses were analyzed with the aid of a one-way analysis of variance (ANOVA). […]
# mice [10] = test: MK-801-induced locomotor hyperactivity in mice
# Method: as §1
# The locomotor activity was recorded with an Opto M3 multi-channel activity monitor (MultiDevice Software v. 1.3, Columbus Instruments). The mice were individually placed in plastic cages (22×12×13 cm) for 30 minutes habituation period, and then the crossings of each channel (ambulation) were counted during 1 h with data recording every 5 minutes. The cages were cleaned up with 70% ethanol after each mouse.
# The locomotor activity was recorded according to method described above.
# as §2
# All the data are expressed as the mean±SEM. The statistical significance of effects was evaluated using separate one-way analysis of variance (ANOVA) with comparison between individual groups by Dunnett's test (when only one drug was given) or by the Tukey's test when two drugs were used; p<0.05, p<0.01 and p<0.001 were considered statistically significant.
# Wistar rats [11] = test: Apomorphine-induced stereotyped behaviour in rats
# Description: as §3, §2
# All tests were carried out in a sound-attenuated experimental room between 9:00 a.m. and 3:00 p.m. Within 24 h prior to testing, rats were habituated to glass observation so cages (25×25×40 cm, W×H×L) with wood chip bedding on the floor for 20 min. […] Rats were injected with apomorphine (0.6 mg/kg) and placed in the observation cages. […] Twenty minutes later, the time spent licking/biting and sniffing downward was recorded by a trained observer for 5 minutes (300 s). […]
# The duration of stereotyped sniffing and licking/biting was analyzed with the aid of the Kruskal-Wallis analysis of variance (ANOVA). […]
# Wistar rats [12] = test: 2,5-Dimethoxy-4-iodoamphetamine (DOI)-induced head twitches in rats
# Description: as §3, §2
# All tests were carried out in a sound-attenuated experimental room between 9:00 a.m. and 3:00 p.m. as described above for spontaneous head twitches. […] Rats were pre-injected i.p. with a test drug 60 min. before the start of the test session. […] Five minutes later, head twitches were counted for 5 minutes. (300 s) by a trained observer.
# Total numbers of head twitches (n/5 min.) were analyzed by means of the Kruskal-Wallis analysis of variance (ANOVA). The Mann-Whitney U test was used for individual post hoc comparisons.
# [13] = % block of hERG current, cloned hERG channels in CHO cells, IonWorks Quattro
# Sequence of hERG potassium channels (Q12809 whole entry): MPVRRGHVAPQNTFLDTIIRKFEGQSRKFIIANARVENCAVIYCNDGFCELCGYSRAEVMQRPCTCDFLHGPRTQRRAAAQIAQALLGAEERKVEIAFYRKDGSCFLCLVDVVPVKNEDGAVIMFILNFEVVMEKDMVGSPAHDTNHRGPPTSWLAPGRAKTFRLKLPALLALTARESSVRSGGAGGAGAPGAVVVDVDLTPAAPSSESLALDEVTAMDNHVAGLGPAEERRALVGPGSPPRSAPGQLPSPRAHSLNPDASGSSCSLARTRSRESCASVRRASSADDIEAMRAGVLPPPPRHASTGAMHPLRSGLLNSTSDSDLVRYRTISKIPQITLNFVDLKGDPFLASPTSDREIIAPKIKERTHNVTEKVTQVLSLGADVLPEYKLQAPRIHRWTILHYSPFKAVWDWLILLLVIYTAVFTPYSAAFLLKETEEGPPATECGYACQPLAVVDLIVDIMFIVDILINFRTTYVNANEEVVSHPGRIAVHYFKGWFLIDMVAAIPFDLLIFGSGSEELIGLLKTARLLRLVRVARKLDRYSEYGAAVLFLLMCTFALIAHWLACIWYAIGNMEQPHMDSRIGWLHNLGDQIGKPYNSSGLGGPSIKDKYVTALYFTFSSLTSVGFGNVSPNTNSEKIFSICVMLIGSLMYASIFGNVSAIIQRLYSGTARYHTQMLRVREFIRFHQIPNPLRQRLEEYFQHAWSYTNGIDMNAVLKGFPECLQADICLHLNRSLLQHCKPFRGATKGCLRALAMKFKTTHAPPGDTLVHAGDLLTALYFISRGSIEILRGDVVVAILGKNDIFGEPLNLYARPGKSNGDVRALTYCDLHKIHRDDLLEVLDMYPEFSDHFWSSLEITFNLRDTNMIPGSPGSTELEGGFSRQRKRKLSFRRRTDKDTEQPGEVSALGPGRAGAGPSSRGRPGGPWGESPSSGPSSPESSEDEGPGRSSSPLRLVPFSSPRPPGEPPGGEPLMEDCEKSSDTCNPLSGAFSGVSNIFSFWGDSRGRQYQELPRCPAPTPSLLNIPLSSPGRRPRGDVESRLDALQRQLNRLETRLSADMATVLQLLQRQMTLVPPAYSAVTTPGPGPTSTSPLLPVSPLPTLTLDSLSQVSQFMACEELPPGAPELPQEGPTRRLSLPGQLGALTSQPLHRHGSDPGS
compound,measurement,setting,value
"O=S(=O)(NCCCCN1CCN(c2cccc3[nH]ccc23)CC1)c1ccc2cc(Cl)ccc2c1 [Compound 358, 6-Chloro-N-[4-[4-(1H-indol-4-yl)piperazin-1-yl]butyl]naphthalene-2-sulphonamide]",hERG [%],hERG potassium channels; [13],0%
"Cc1cccc(S(=O)(=O)NCCCN2CCN(c3nsc4ccccc34)CC2)c1 [Compound 7, N-(3-(4-(1,2-Benzothiazol-3-yl)piperazin-1-yl)propyl)-3-methylbenzenesulphonamide]",MED*,mice [1],2 mg/kg
same,hERG [%],hERG potassium channels; [13],14%
"O=S(=O)(NCCCN1CCC(c2noc3cc(F)ccc23)CC1)c1ccc(F)c(Cl)c1 [Compound 331, 3-Chloro-4-fluoro-N-[3-[4-(6-fluoro-1,2-benzoxazol-3-yl)piperidin-1-yl]propyl]benzenesulphonamide]",hERG [%],hERG potassium channels; [13],32%
"Cc1c(S(=O)(=O)NCCCCN2CCC(c3noc4cc(F)ccc34)CC2)sc2ccc(F)cc12 [Compound 101, 5-Fluoro-N-[4-[4-(6-fluoro-1,2-benzoxazol-3-yl)piperidin-1-yl]butyl]-3-methylbenzothiophene-2-sulphonamide]",hERG [%],hERG potassium channels; [13],14%
"O=S(=O)(NCCCCN1CCN(c2nsc3ccccc23)CC1)c1ccc2ccccc2c1 [Compound 2, N-(4-(4-(1,2-Benzothiazol-3-yl)piperazin-1-yl)butyl)naphthalene-2-sulphonamide]",Kb,histaminergic receptor,457 nM
same,MED*,mice [1],5 mg/kg
same,hERG [%],hERG potassium channels,14%
"O=S(=O)(NCCCCN1CCC(c2noc3cc(F)ccc23)CC1)c1ccc2cc(Cl)ccc2c1 [Compound 97, 6-Chloro-N-[4-[4-(6-fluoro-1,2-benzoxazol-3-yl)piperidin-1-yl]butyl]naphthalene-2-sulphonamide]",MED*,mice [1],2.5 mg/kg
"Cc1c(S(=O)(=O)NCCCCN2CCN(c3nsc4ccccc34)CC2)sc2ccc(F)cc12 [Compound 65, N-[4-[4-(1,2-Benzothiazol-3-yl)piperazin-1-yl]butyl]-5-fluoro-3-methylbenzothiophene-2-sulphonamide]",5-HT2C -ag [%],[2],0%
"N#Cc1cccc(S(=O)(=O)NCCCN2CCC(c3noc4cc(F)ccc34)CC2)c1 [Compound 338, 3-cyano-N-[3-[4-(6-fluoro-1,2-benzoxazol-3-yl)piperidin-1-yl]propyl]benzenesulphonamide]",hERG [%],hERG potassium channels; [13],40.5%
"O=S(=O)(NCCCCN1CCN(c2nsc3ccccc23)CC1)c1ccc2cc(Cl)ccc2c1 [Compound 61, N-[4-[4-(1,2-Benzothiazol-3-yl)piperazin-1-yl]butyl]-6-chloro-naphthalene-2-sulphonamide]",hERG [%],hERG potassium channels; [13],12%
"O=S(=O)(NCCCCN1CCN(c2cccc3[nH]ccc23)CC1)c1cccc(Cl)c1 [Compound 113, N-[4-[4-(1H-Indol-4-yl)piperazin-1-yl]butyl]-3-chlorobenzenesulphonamide]",hERG [%],hERG potassium channels; [13],16%
"O=S(=O)(NCCCCN1CCN(c2nsc3ccccc23)CC1)c1cccc2ccccc12 [Compound 1, N-(4-(4-(1,2-Benzothiazol-3-yl)piperazin-1-yl)butyl)naphthalene-1-sulphonamide]",Kb,histaminergic receptor,498 nM
same,hERG [%],hERG potassium channels; [13],16%
"O=S(=O)(NCCCCN1CCN(c2nsc3ccccc23)CC1)c1cc2ccc(Cl)cc2s1 [Compound 241, N-[4-[4-(1,2-Benzothiazol-3-yl)piperazin-1-yl]butyl]-6-chlorobenzothiophene-2-sulphonamide]",5-HT2C -ag [%],[2],−4%
"O=S(=O)(NCCCCN1CCC(c2noc3cc(F)ccc23)CC1)c1ccc2ccccc2c1 [Compound 18, N-[4-[4-(6-Fluoro-1,2-benzoxazol-3-yl)piperidin-1-yl]butyl]naphthalene-2-sulphonamide]",MED*,mice [1],2.5 mg/kg
same,hERG [%],hERG potassium channels; [13],30%
"Cc1cccc(S(=O)(=O)NCCCN2CCC(c3noc4cc(F)ccc34)CC2)c1 [Compound 22, N-[3-[4-(6-Fluoro-1,2-benzoxazol-3-yl)piperidin-1-yl]propyl]-3-methylbenzenesulphonamide]",activity in tail suspension test in mice,"C57BL/6J mice; mice, antidepressant model",active
same,MED,C57BL/6J mice; tail suspension test in C57BL/6J mice,0.156 mg/kg
same,MED,Swiss mice; four-plate test in mice,0.312 mg/kg
same,activity in four plates test in mice,"Swiss mice; mice, anxiolytic model",active
same,MED,Wistar rats [3]; Porsolt forced swim test (potential antidepressant activity),0.3 mg/kg
same,activity in forced swim test (Porsolt) in rats,Wistar rats [3]; antidepressant model,active
same,MED,Wistar rats [4]; Vogel test (potential anxiolytic activity),3 mg/kg
same,activity in conflict drinking test (Vogel) in rats,Wistar rats [4]; anxiolytic model,active
same,activity in elevated plus maze,Wistar rats [5]; anxiolytic model,active
same,MED [mg/kg],Wistar rats [5]; elevated plus-maze (potential anxiolytic activity),≤ 0.3 * mg/kg
same,MED,Wistar rats [6],>30 mg/kg
same,activity in reversal of deficits in prepulse inhibition in rats,Wistar rats [7],active
same,MED,Wistar rats [7]; prepulse inhibition disruption caused by amphetamine administration,30 mg/kg
same,MED,Wistar rats [8],3 mg/kg
same,activity in active avoidance response,Wistar rats [9],active
same,MED,Wistar rats [9]; active-avoidance response (model of positive symptoms of schizophrenia),3 mg/kg
same,activity in MK-801 induced hyperlocomotion,mice [10],active
same,MED*,"mice [10]; minimum effective dose, MK-801-induced locomotor hyperactivity, i.p.",1.25 mg/kg
same,activity in stereotyped behavior induced by apomorphine,Wistar rats [11],active
same,MED,Wistar rats [11]; apomorphine-induced stereotyped behaviour (dopamine-related psychosis model),10 mg/kg
same,activity in d-amphetamine induced hyperlocomotion,mice [1],active
same,MED*,mice [1],2.5 mg/kg
same,activity in stereotyped behavior induced by DOI,Wistar rats [12],active
same,MED [mg/kg],Wistar rats [12]; DOI-induced head twitches (serotonin-related psychosis model),≤ 1 * mg/kg
same,hERG [%],hERG potassium channels; [13],52%
"O=S(=O)(NCCCCN1CCN(c2noc3ccccc23)CC1)c1ccc2ccccc2c1 [Compound 14, N-(4-(4-(1,2-Benzoxazol-3-yl)piperazin-1-yl)butyl)naphthalene-2-sulphonamide]",hERG [%],hERG potassium channels; [13],−1.4%
"O=S(=O)(NCCCCN1CCN(c2cccc3[nH]ccc23)CC1)c1cnc2ccccn12 [Compound 30, N-{4-[4-(1H-Indol-4-yl)piperazin-1-yl]butyl}-imidazo[1,2-a]pyridine-3-sulphonamide]",hERG [%],hERG potassium channels; [13],−3%
"O=S(=O)(NCCCCN1CCN(c2cccc3[nH]ccc23)CC1)c1cc2ccc(Cl)cc2s1 [Compound 363, 6-Chloro-N-[4-[4-(1H-indol-4-yl)piperazin-1-yl]butyl]benzothiophene-2-sulphonamide]",hERG [%],hERG potassium channels; [13],0%
"Cc1cccc(S(=O)(=O)NCCCCN2CCN(c3nsc4ccccc34)CC2)c1 [Compound 3, N-(4-(4-(1,2-Benzothiazol-3-yl)piperazin-1-yl)butyl)-3-methylbenzenesulphonamide]",Kb,histaminergic receptor,148 nM
same,hERG [%],hERG potassium channels,17%
"O=S(=O)(NCCCCN1CCN(c2cccc3[nH]ccc23)CC1)c1ccc(F)cc1 [Compound 359, 4-Fluoro-N-[4-[4-(1H-indol-4-yl)piperazin-1-yl]butyl]benzenesulphonamide]",hERG [%],hERG potassium channels; [13],9%
